From ChEMBL document CHEMBL1143886, “In vitro spermicidal activity of peptides from amphibian skin: dermaseptin S4 and derivatives” (Bioorg Med Chem, 2008) come the findings set out here.

Calls of active or inactive are those of the source. The calls are words filed in the database; no cut-off is given here.

Data set [1] concerns Sperm. The experiment in a line: Inhibition of human sperm motility at 5 ug/ml after 15 mins by CASA. The format is functional.
The subject of data set [2] is Sperm. The experiment in a line: Inhibition of human sperm motility assessed as decrease in curvilenear velocity by CASA. It counts as functional, cell-based.
Data set [3] has as its system Sperm. The experiment in a line: Inhibition of human sperm motility assessed as decrease in average path velocity by CASA. It counts as functional.
In data set [4] the test system is Sperm. The experiment in a line: Inhibition of human sperm motility assessed as decrease in straight line velocity by CASA. It counts as functional.
Data set [5] in a line: Inhibition of human sperm motility by Sander-Cramer modified assay. It counts as functional.
The test system of another data set is HeLa. The experiment in a line: Cytotoxicity against human HeLa cells at above 16 ug/ml after 24 hrs by MTT assay. It counts as cell-based. Background: Formazan colour is commonly taken as a measure of viable cells.
Data set [6] can be described thus: Inhibition of human sperm motility at 20 ug/ml after 5 mins by CASA. The format is functional. Also noted: scale not given: the % may be the effect or the level left.
In data set [7] the test system is Sperm. The experiment in a line: Inhibition of human sperm motility upto 15 mins by CASA. It counts as functional, cell-based.

For `CC(C)C[C@H](NC[C@@H](NC(=O)[C@H](C)NC(=O)[C@H](CC(N)=O)NC(=O)[C@H](CC(C)C)NC(=O)[C@H](C)NC(=O)[C@H](C)NC(=O)[C@H](CCCCN)NC(=O)[C@H](C)NC(=O)[C@H](C)NC(=O)[C@H](C)NC(=O)[C@H](CCCCN)NC(=O)[C@H](CC(C)C)NC(=O)[C@@H](NC(=O)[C@H](CCCCN)NC(=O)[C@H](CCCCN)NC(=O)[C@H](CC(C)C)NC(=O)[C@H](CC(C)C)NC(=O)[C@@H](NC(=O)[C@H](CCCCN)NC(=O)[C@H](Cc1c[nH]c2ccccc12)NC(=O)[C@H](CC(C)C)NC(=O)[C@H](C)N)[C@@H](C)O)C(C)C)C(C)C)C(=O)N[C@H](C(=O)NCC(=O)N[C@@H](C)C(=O)N[C@@H](CC(N)=O)C(=O)N[C@@H](C)C(=O)O)C(C)C`, the outcome in the data set on Sperm [1] was Active. In addition, the Activity result in the data set with Sperm [2], in the data set with Sperm [3] and with Sperm [4] was “Dose-dependent effect” throughout.
With `CSCC[C@H](NC(=O)[C@H](Cc1c[nH]c2ccccc12)NC(=O)[C@H](CC(C)C)NC(=O)[C@H](C)N)C(=O)N[C@H](C(=O)N[C@@H](CC(C)C)C(=O)N[C@@H](CC(C)C)C(=O)N[C@@H](CCCCN)C(=O)N[C@@H](CCCCN)C(=O)N[C@H](C(=O)N[C@@H](CC(C)C)C(=O)N[C@@H](CCCCN)C(=O)N[C@@H](C)C(=O)N[C@@H](C)C(=O)N[C@@H](C)C(=O)N[C@@H](CCCCN)C(=O)N[C@@H](C)C(=O)N[C@@H](C)C(=O)N[C@@H](CC(C)C)C(=O)N[C@@H](CC(N)=O)C(=O)N[C@@H](C)C(=O)N[C@H](CN[C@@H](CC(C)C)C(=O)N[C@H](C(=O)NCC(=O)N[C@@H](C)C(=O)N[C@@H](CC(N)=O)C(=O)N[C@@H](C)C(N)=O)C(C)C)C(C)C)C(C)C)[C@@H](C)O`, the Activity result with Sperm [2], in the data set with Sperm [3] and in the data set on Sperm [4] was “Dose-dependent effect” in each case.
On to H-ALWKTLLKKVLKAAAK-NH2, for which, in data set [5], the EC100 was found to be 25 µg/mL. In addition, the Activity entry with Sperm [2] was “Dose-dependent effect”; with Sperm [3], “Dose-dependent effect”; with Sperm [4], “Dose-dependent effect”; with HeLa, “Toxic”.
As for “H-ALWKTLLKKVLKAAAKAALNAVLVGANA-OH [listing 1 of 2 here]”, the Activity result in the data set on HeLa is “Toxic”.
Consider “H-ALWKTLLKKVLKAAAKAALNAVLVGANA-OH [listing 2 of 2 here]”, for which, in data set [6], the Activity worked out at 100%.
“H-ALWMTLLKKVLKAAAKAALNAVLVGANA-NH2 [listing 1 of 2 here]”: the Activity result in the data set on HeLa is reported as “Toxic”.
In data set [5], “H-ALWMTLLKKVLKAAAKAALNAVLVGANA-NH2 [listing 2 of 2 here]” displayed an EC100 of 25 µg/mL.
H-ALWMTLLKKVLKAAAKAALNAVLVGANA-OH displayed an EC100 in data set [5] of 25 µg/mL.
Take H-LLKKVLKAAAKAALNAVLVGANA-OH: the EC100 in data set [5] worked out at 25 µg/mL. Also, the result in the data set on Sperm [7] was inactive. The Activity entry in the data set with Sperm [2], in the data set with Sperm [3] and in the data set with Sperm [4] was “Dose-dependent effect” in each case.
